In the Deep4Chem optical property database one finds absorption maximum data, which are given here for 50 compounds.

The data set in a line: solvent given as SMILES.

The structures appear in SMILES notation.

`Cc1c(C)c(N2c3ccccc3Oc3ccccc32)c(C)c(C)c1B(c1c(C)c(C)c(N2c3ccccc3Oc3ccccc32)c(C)c1C)c1c(C)c(C)c(N2c3ccccc3Oc3ccccc32)c(C)c1C` returned an absorption maximum (in CC(C)(C)c1ccc(-n2c3ccc([Si](c4ccccc4)(c4ccccc4)c4ccccc4)cc3c3cc([Si](c4ccccc4)(c4ccccc4)c4ccccc4)ccc32)cc1) of 398 nm.

With `CC(C)(C)c1ccc2c(c1)c1cc(C(C)(C)C)ccc1n2-c1cccc(-c2nc(-c3cccc(P(=O)(c4ccccc4)c4ccccc4)c3)nc(-c3cccc(P(=O)(c4ccccc4)c4ccccc4)c3)n2)c1`, the absorption maximum (in C1CCOC1) was determined as 343 nm; the absorption maximum (in CC#N) was 343 nm; the absorption maximum (in CC(C)=O) was 343 nm; the absorption maximum (in CN(C)C=O) is reported as 343 nm; the absorption maximum (in Cc1ccccc1) was found to be 343 nm; the absorption maximum (in ClC(Cl)Cl) worked out at 343 nm. For the same compound, the absorption maximum (in ClCCl) came out at 343 nm. Consider `CC1(C)C(/C=C/C2=C(Oc3ccc(CCN=C=S)cc3Cl)C(=C/C=C3/N(CCCS(=O)(=O)[O-])c4ccccc4C3(C)C)/CCC2)=[N+](CCCS(=O)(=O)[O-])c2ccccc21`, for which the absorption maximum (in CO) is given as 768 nm.

`c1cc2cc(c1)c1ccc3ccc4ccc(cc4c3c1)c1ccc3ccc4ccc(cc4c3c1)c1cccc2c1` showed an absorption maximum (in Cc1ccccc1) of 355 nm.

On to `Cc1cc(C2=C(c3c(C)sc(-c4ccc(-c5nc(-c6ccccc6)c(-c6ccccc6)[nH]5)cc4)c3C)C(F)(F)C(F)(F)C2(F)F)c(C)s1`, for which the absorption maximum (in C1CCOC1) came to 336 nm. Compound `N#Cc1ccc(C2=Cc3cc4ccccc4cc3P2(=O)c2ccccc2)cc1` (stereo unspecified) showed an absorption maximum (in ClCCl) of 391 nm. Under “in CCO”, `CN1C(=CC2=C([O-])C(=O)C2=C(C#N)C#N)Sc2ccccc21` displayed an absorption maximum of 481 nm.

On to `COc1ccc(C2=[N+]3C(=Nc4c(-c5cc(OC)c(OC)c(OC)c5)c(-c5ccc(C(C)(C)C)cc5)c(-c5ccc(OC)cc5)n4[B-]3(F)F)C(c3cc(OC)c(OC)c(OC)c3)=C2c2ccc(C(C)(C)C)cc2)cc1`, for which, for the setting “in Cc1ccccc1”, the absorption maximum is on record as 694 nm.

Regarding `CC1(C)c2ccccc2N(c2ccc3c(c2)Oc2ccccc2P3(=O)c2ccccc2)c2ccccc21` (stereo unspecified), the absorption maximum (in Cc1ccccc1) was 348 nm. Turning to `N#Cc1nc(N(Cc2ccc(Br)cc2)Cc2ccc(Br)cc2)c(C#N)nc1N(Cc1ccc(Br)cc1)Cc1ccc(Br)cc1`, the absorption maximum (in ClC(Cl)Cl) worked out at 485 nm. Where the note is “in CCCCCCC”, `c1cc2c3c(cccc3c1)-c1c-2ccc2c1ccc1ccccc12` had an absorption maximum of 405 nm. For `c1ccc(N(c2ccccc2)c2ccc(-c3ccc(-c4ccc(N(c5ccccc5)c5ccccc5)cc4)c4nsnc34)cc2)cc1`, for the setting “in ClCCl”, the absorption maximum came out at 459 nm.

The compound `O=C1OC(c2ccccc2)=C/C1=C\c1ccccc1` had an absorption maximum (in C1COCCO1) of 442 nm. In the case of `c1ccc2c[n+]3ccccc3cc2c1`, the absorption maximum (in O) was found to be 396 nm.

As for `CN(C)c1ccc(-c2nc3nccnc3n2-c2ccc(N(C)C)cc2)cc1`, the absorption maximum (in CC#N) amounted to 371 nm.

For the setting “in ClCCl”, `CN(C)c1ccc(C#Cc2cc(C#Cc3ccc(C(F)(F)F)cc3)c3ccc4c(C#Cc5ccc(C(F)(F)F)cc5)cc(C#Cc5ccc(N(C)C)cc5)c5ccc2c3c54)cc1` returned an absorption maximum of 506 nm. `c1cc2oc3cccc4oc5cccc6oc(c1)c2[c+](c34)c65` gave an absorption maximum (in CC#N) of 481 nm. Turning to `Cc1cc(C)c(B(c2cc(-c3ccccc3)sc2-c2sc(-c3ccccc3)cc2P(=O)(c2ccccc2)c2ccccc2)c2c(C)cc(C)cc2C)c(C)c1`, the absorption maximum (in CO) came out at 392 nm.

Regarding `CCOC(=O)c1ccccc1-c1c2ccc(=[N+](CC)CC)cc-2oc2c1c(=O)oc1cc3c(cc12)CCCN3C`, the absorption maximum (in CCO) was 602 nm, the absorption maximum (in ClC(Cl)Cl) is on record as 608 nm and the absorption maximum (in O) is reported as 602 nm. With `CCN(CC)c1ccc(C=Cc2nc3nc4ccccc4nc3s2)c(OC)c1`, the absorption maximum (in CO) is listed as 485 nm. Same read-out and setting: the figure for `Cc1ccc2c(c1)nnn2-c1c(C#N)c2c(N)ncnc2n1[C@H]1C[C@H](O)[C@@H](CO)O1` is 278 nm. `c1ccc(-c2nnc(-c3cc(-n4c5ccccc5c5ccccc54)c(-n4c5ccccc5c5ccccc54)cc3-c3nnc(-c4ccccc4)o3)o2)cc1`: where the note is “in ClCCl”, the absorption maximum worked out at 361 nm. As for `c1ccc(N(c2ccccc2)c2ccc3ccc4c(N(c5ccccc5)c5ccccc5)ccc5ccc2c3c54)cc1`, the absorption maximum (in Cc1ccccc1) amounted to 426 nm and the absorption maximum (in ClCCl) is on record as 423 nm.

Turning to `FC(F)(F)c1ccc2c(c1)Nc1ccccc1S2`, the absorption maximum by setting is: (in CC#N) 322 nm; (in CO) 324 nm. `Cc1cc(C)c(C)c(-c2cc(-c3c(C)c(C)cc(C)c3C)c3ccc4c(-c5c(C)c(C)cc(C)c5C)cc(-c5c(C)c(C)cc(C)c5C)c5ccc2c3c54)c1C` returned an absorption maximum (in ClCCl) of 364 nm. Compound `O=Cc1cnc(-c2c3ccccc3cc3ccccc23)nc1` gave an absorption maximum (in CCO) of 381 nm and an absorption maximum (in ClCCl) of 384 nm. Compound `COc1ccc(-c2cc(/C=C/c3ccc(N(c4ccccc4)c4ccccc4)cc3)c(C#N)c(N3CCCCC3)c2)cc1` registered an absorption maximum (in CS(C)=O) of 398 nm. As to `CCC1=C(C)C2=Cc3c4ccccc4c4n3[B-](c3cc[n+](C)cc3)(Oc3ccccc3-4)[N+]2=C1C` (stereo unspecified), the absorption maximum by setting is: (in CO) 621 nm; (in CS(C)=O) 626 nm.

In the case of `C=CCNc1ccc2c(ccc3oc4cc(=[N+](C)C)ccc-4nc32)c1`, the absorption maximum by setting is: (in CC#N) 597 nm; (in CCO) 601 nm; (in ClCCl) 610 nm; (in O) 579 nm.

With `CCC1=C(C2=C(C3=C(CC)S(=O)(=O)c4cc(-c5ccc(CO)cc5)ccc43)C(F)(F)C(F)(F)C2(F)F)c2ccc(-c3ccc(CO)cc3)cc2S1(=O)=O`, the absorption maximum (in C1COCCO1) was determined as 340 nm. With `COc1ccc(/C=C/c2ccc(-c3nnc(-c4ccc(-c5cc6ccccc6s5)cc4)o3)cc2)cc1`, the absorption maximum is, setting by setting: (in CC#N) 337 nm; (in CC(C)=O) 341 nm; (in CCCCCCCC) 337 nm; (in CCCCCCCCCCO) 346 nm; (in CCCCCCCCO) 347 nm; (in CCCCCO) 346 nm. Further, the absorption maximum worked out at 345 nm (in CCCO), 351 nm (in CN(C)C=O), 345 nm (in CO) and 348 nm (in CS(C)=O). For the compound `CC1=CC(C)=[N+]2C1=C(C)c1cccn1[B-]2(F)F`, the absorption maximum reads like this: (in CCCCCC) 492 nm; (in CO) 486 nm; (in ClCCl) 488 nm.

Take `CC1=[N+]2C(=C(c3ccccc3)c3c4c(c(C)n3[B-]2(F)F)CCc2ccccc2-4)C2=C1CCc1ccccc12`: the absorption maximum (in CC#N) stood at 565 nm.

In turn, `COCCC1=Cc2nc1ccc1[nH]c(cc1CCOC)c1nc(ccc3[nH]c2cc3CCOC)C(CCOC)=C1` yielded an absorption maximum (in Cc1ccccc1) of 638 nm. For the setting “in CO”, `COc1ccc(-c2nc(-c3ccccc3)c(-c3ccccc3)[nH]2)cc1` had an absorption maximum of 305 nm. In turn, `Cc1cc(C)n2c1C=C1c3ccccc3C(c3c[nH]c4ccccc34)=[N+]1[B-]2(F)F` displayed an absorption maximum (in C1CCOC1) of 583 nm; an absorption maximum (in CC#N) of 575 nm; an absorption maximum (in CCCCCC) of 580 nm; an absorption maximum (in CO) of 579 nm; an absorption maximum (in Cc1ccccc1) of 587 nm; an absorption maximum (in ClCCl) of 581 nm. Consider `CCN(CC)c1ccc2c(c1)oc(=O)c1cc3c(-c4ccccc4)nn(-c4ccccc4)c3nc12`, for which, for the setting “in ClCCl”, the absorption maximum amounted to 359 nm. On the same count and under the same terms, the figure for `C(S/C=C/c1ccc(/C=C/SC=C2CCCCC2)cc1)=C1CCCCC1` is 350 nm.

In the case of `C(=C\c1ccnc2ccccc12)/c1c2ccccc2cc2ccccc12`, the absorption maximum by setting is: (in CC1CCCCC1) 387 nm; (in CC#N) 387 nm. `CN1c2ccc(C(=O)c3ccccc3)cc2Sc2cc(C(=O)c3ccccc3)ccc21`: the absorption maximum (in C1CCCCC1) is given as 390 nm; the absorption maximum (in C1CCOC1) came out at 402 nm; the absorption maximum (in CN(C)C=O) is 407 nm; the absorption maximum (in Cc1ccccc1) was 405 nm; the absorption maximum (in ClC(Cl)Cl) was 407 nm; the absorption maximum (in ClCCl) came to 408 nm. Regarding `C[N+]1=C(/C=C/C2=C3Oc4c(cc5c6c4CCCN6CCC5)C(c4ccccc4C(=O)O)=C3CCC2)C(C)(C)c2c1ccc1ccccc21`, the absorption maximum is 742 nm (in CC#N), 728 nm (in CCO), 730 nm (in CO) and 746 nm (in ClC(Cl)Cl).

For `O[Si](c1c2ccccc2cc2ccccc12)(c1c2ccccc2cc2ccccc12)c1c2ccccc2cc2ccccc12`, the absorption maximum (in ClC(Cl)Cl) worked out at 402 nm. As to `CC(C)(C)c1ccc(-c2cc3c(-c4ccc(C(C)(C)C)cc4)c4cccc5c(-c6ccc(C(C)(C)C)cc6)cc6c(-c7ccc(C(C)(C)C)cc7)c7cccc2c7c3c6c54)cc1`, the absorption maximum (in ClCCl) came to 456 nm. `C(#Cc1nc(C#Cc2ccccc2)c(C#Cc2ccccc2)c(C#Cc2ccccc2)c1C#Cc1ccccc1)c1ccccc1` registered an absorption maximum (in ClCCl) of 421 nm. With `Cc1nc(-c2ccc(-n3c4ccccc4c4ccccc43)cc2)cc(-c2ccc(-n3c4ccccc4c4ccccc43)cc2)n1`, the absorption maximum is listed as 343 nm (in C1CCOC1), 343 nm (in CN(C)C=O), 355 nm (in Cc1ccccc1) and 343 nm (in ClC(Cl)Cl). As to `CNc1ccc2c(c1)C(=O)c1ccccc1-2`, the absorption maximum runs as follows: (in C1CCCCC1) 474 nm; (in CC#N) 508 nm; (in CCO) 511 nm; (in c1ccccc1) 491 nm. For the compound `CC1(C)C(/C=C/C2=C(c3ccc(C(=O)O)cc3)C(=C/C=C3/N(CCCS(=O)(=O)[O-])c4ccc5ccccc5c4C3(C)C)/CCC2)=[N+](CCCS(=O)(=O)[O-])c2ccc3ccccc3c21`, the absorption maximum (in CO) came out at 800 nm.

Turning to `CC1=[N+]2C(=C(c3ccccc3)c3c4c5ccccc5c5ccccc5c4c(C)n3[B-]2(F)F)c2c1c1ccccc1c1ccccc21`, for the setting “in CCCCCC”, the absorption maximum stood at 630 nm. On to `BrC1=CN2C[n+]3cc(Br)cc(Br)c3N=C2C(Br)=C1`, for which, where the note is “in CS(C)=O”, the absorption maximum is reported as 449 nm. For the compound `COc1ccccc1-n1nc(C#N)c(N2CCCC2)n1`, where the note is “in CC#N”, the absorption maximum is 318 nm.
